Two compounds from patent US9801908B2, “Treatment for chitin-containing microorganisms” (BENCHMARK ANIMAL HEALTH LIMITED, priority 2013, dated 2017) can be followed below.

Each structure is given as a SMILES string. Read-outs that look alike come from different tables or passages of the source.

Data set [1] concerns Saprolegnia spores. The data set is described as follows: Germination and colonization of Saprolegnia spores on sesame seeds. It is filed as cell-based, Saprolegnia parasitica. On the set-up: key to grade of germination and colonization of Saprolegnia spores on sesame seeds: Grade 0: no germination no growing mycelia on the sesame seeds; Grade 1: germinating spores no growing mycelia on the sesame seeds; Grade 2: germinating spores very few growing mycelia on the sesame seeds; Grade 3: germinating spores profuse growing mycelia on the sesame seeds. The following applies: for grade of germination and colonization of Saprolegnia spores on sesame seeds: 48 hours incubation. The protocol: BA was diluted to desired concentration in Sterilized Aquarium Water (SAW). […] Saprolegnia zoospores were produced according to the method described previously by Stueland et al. […] Sterilized aquarium water (SAW) was used as a non-treated control and bronopol (Pyceze Vet.® 500 g bronopol/L) was used as a positive control. Each BA concentration and controls were tested in triplicates and incubated at 20° C. 24 hours later, plates were examined microscopically.

Data set [2] relates to Saprolegnia hyphae/mycelium.
Procedure: The plates were observed microscopically to confirm the attachment of the spores to the sesame seeds and the presence of the early growing mycelia. BA was added at 12 h post infection of the sesame seeds at the same concentrations mentioned above to all tested plates except controls. Plates were incubated further at 20° C. SAW was used as non-treated control and bronopol as positive control. Plates were inspected microscopically after 24 h for advanced mycelial growth.
In data set [3] the test system is Saprolegnia spores and zoosporangia.
Procedure: At indicated time points BA was replaced with SAW. The ability of treated spores to germinate and colonize sesame seeds was recorded 24 h following the treatment removal. Treated zoosporangia were also examined for their ability to release spore. Spores and zoosporangia in SAW were used as a non-treated control. Results were confirmed with fluorescent microscopy using SYTO 9 dye (Invitrogen®) 5 mM solution in DMSO.
The subject of a further data set is Saprolegnia sp. The note with it: 4 h once a day.
In data set [4] the test system is Saprolegnia spores (S. diclina VIO 2739, S. parasitica VIO 2741, aquarium water). The note with it: BA 1-4 g/L, 4 hours/day, 14 days.
Procedure: The ability of BA to protect dead eggs from becoming infected with Saprolegnia spores was investigated. The rationale is that dead eggs may be the first to get infected under natural conditions and act as a source of infection for live eggs. Combined treatment of BA and PA was also tested.
Five egg groups were used, each group divided equally into 3 smaller sub-groups. 25 live eggs plus 5 dead ones were placed in each of the sub-groups (90 eggs per group). […] In the groups, eggs were supplied with continuous slow water flow of 1 L/min. The aquarium water at the facilities of the Norwegian Veterinary Institute/Norwegian School of Veterinary Science contains Saprolegnia zoospores and was used as source of infection. […] Treatment with BA was carried out as follows. The water flow was stopped and each group, except the non-treated control group, was treated with BA at concentrations of 1, 2, 3, and 4 g/L. The treatment period was 4 hours/day after which water flow was resumed. Dead eggs were inspected daily over 14 days for their colonization with Saprolegnia spores and the presence of growing hypha. Number of dead eggs per group and hatching rates were recorded.
The subject of data set [5] is Saprolegnia spores. The following applies: BA 0.5 g/L continuous, yolk sac fry, natural outbreak.
Source text: The safety of continuous exposure of salmon fry to a low concentration of BA (0.5 g/L) was also investigated to understand what extent BA will protect Atlantic salmon fry from becoming infected by Saprolegnia spores during a natural outbreak of saprolegniosis in the aquarium.
Data set [6] has as its system Atlantic salmon eyed eggs. The note with it: in vivo.
Where [7] appears, read: treated 96 h in BA, then 24 h in SAW.

Procedure for Saprolegnia sp.: The experimental design was as described in experiment 1 with the same number of eggs per replicate (N=27±2) and the number of infected eggs introduced per replicate (3 per 27 eggs). The difference was that the eggs were exposed to higher BA concentrations (1, 2, 3, 4 g/L) for 4 h once a day over the course of the experiment which lasted for 14 days in total. After 4 h of treatment the flow of aquarium water was resumed. The same treatment was applied 24 h later and every day up to 14 days. The time between treatments was the same throughout the experiment. The number of dead eggs, presence or absence of infection and hatching rates were recorded over the duration of the experiment.
Infected dead eggs that were used as source of infection in the BA treated groups and the non-treated control were examined microscopically to observe the effect of BA treatment on the growing mycelia.

Turning to `OB(O)O` [boric acid], the “grade of germination and colonization of Saprolegnia spores on sesame seeds” value is recorded as “Grade 0” with Saprolegnia spores [1] ("boric acid g/L" (concentration not given)), “Grade 2” in the data set on Saprolegnia spores [1] (boric acid 0.2-0.4 g/L), “Grade 1” with Saprolegnia spores [1] (boric acid 0.5-0.9 g/L) and “Grade 3” in the data set on Saprolegnia spores [1] (boric acid <0.2 g/L). Also, the “germination of inoculated Saprolegnia spores” value in the data set on Saprolegnia spores [1] (BA 1 g/L and above) is listed as “did not germinate”. For the same compound, in the data set on Saprolegnia spores [1] (BA below 0.2 g/L), the “germination and colonization of sesame seeds by Saprolegnia spores” value is “germinated and colonized sesame seeds”. Also, the “growth rate compared to the non-treated control” value in the data set with Saprolegnia spores [1] (BA below 0.2 g/L) is recorded as “slow”. Further, in data set [2] (BA 0.5 g/L and below), the hyphael growth grade entry is “grade 1”. Besides, the mycelia growth result in data set [2] (BA above 0.5 g/L) was “no further growth”. The “production and release of zoospores from young zoosporangia” value in the data set with Saprolegnia zoosporangia (1 g/L BA, 12 and 24 h) was “interferes with the production and subsequent release of zoospores”. For the same compound, in the data set on Saprolegnia zoosporangia (1 g/L BA, 12 and 24 h), the “sign observed in zoosporangia after treatment” value is given as “Vacuolation of the entire of zoosporangia”. The “spore production and release from zoosporangia (FIG. 2 b2)” value in the data set on Saprolegnia zoosporangia (24 hours exposure to boric acid) is “absence of spore production and release”. Further, the “spore release of zoosporangia 24 h after exposure terminated” value in data set [3] (BA 1 g/L for 12 h) and in data set [3] (BA 1 g/L for 24 h) was “showed spore release” each time. In addition, the “spore release of zoosporangia after exposure terminated” value in data set [3] (BA 1 g/L for 72 h) and in data set [3] (BA 1 g/L for 96 h) was “no spore release” in each case. In data set [3] (treated 24 h with BA, then 24 h in SAW), the “colonization of seeds (FIG. 3c-1)” value is on record as “Thin hyphae can be seen projecting out from seeds”. The “appearance of zoosporangium (FIG. 3d-2)” value in data set [3] (setting [7]) was “condensed staining and a thin wall”. Besides, the “colonization of seeds (FIG. 3d)” value in data set [3] (setting [7]) is reported as “no colonization on seeds”. Moreover, in the data set on Saprolegnia sp. (BA 1, 2, 3 or 4 g/L, 14 days), the “hyphal attachment between infected dead and live eggs” value was “No hyphal attachment”. Further, in the data set with Saprolegnia sp. (all treated groups, BA 1-4 g/L), the “mycelium on dead eggs used as source of infection” value is reported as “scanty attachment of mycelium”. In addition, the “attachment between dead and live eggs” value in data set [4] was “no attachment”. In addition, the “hyphal growth on dead eggs” value in data set [4] is “No hyphal growth”. Also, the “fry mortality rates compared to non-treated control” value with Saprolegnia spores [5] is reported as “Significant reduction”. The “impact on hatchability and viability of eggs or fry” value in data set [6] was “no negative impact”.

Regarding `O=[N+]([O-])C(Br)(CO)CO` [bronopol, reference compound], in the data set on Saprolegnia spores [1] (positive control (Pyceze Vet. 500 g bronopol/L)), the “grade of germination and colonization of Saprolegnia spores on sesame seeds” value is “Grade 0”. The mortality of eggs in data set [6] (Atlantic salmon, 2 h) is 100%.
